{
  "source": "patent EP0548790A1",
  "about": "“(1'S)-Hydroxyalkyloxapenem-3-carboxylic acids and their use as beta-lactamase inhibitors” (ELI LILLY AND COMPANY, priority 1991, dated 1993)",
  "key": {"E. coli TEM 1": {"system": "E. coli TEM 1", "test": "agar diffusion test, inhibition zone diameter (Hemmhof), inhibitor alone and combined with Cefaclor", "format": "cell-based, E. coli W 311O3 R6K (TEM 1)", "details": "for zone of inhibition at 10 µg/disc: Escherichia coli, TEM1, read-out: Hemmhofdurchmesser mm (E. coli TEM 1) I (10 mcg); for Hemmhofzuwachs, d.h. die Schutzwirkung: increase of zone with Cefaclor versus alone; for Eigenwirkung als Antibiotika: inhibitor alone; for Wirkung als Betalactamasehemmer gegen E. coli TEM 1: protection of Cefaclor against the bacterial enzyme", "text": "\"like\" bedeutet gleiche absolute Konfiguration zweier benachbarter Chiralitätszentren. Als Testkeim wurde ein besonders starker Betalactamase-Bildner verwendet. E. coli W 311O3 R6K (TEM 1) wurde deshalb mehrfach in einer Kulturlösung mit 2O mcg/ml Cefaclor bebrütet. Cefaclor allein (3O mcg) ergab einen Hemmhof von 16 mm, mit 1O mcg Clavulansäure kombiniert einen solchen von 22 mm Durchmesser."}, "[1]": {"system": "Penicillin resistenten Staph. aureus", "details": "comparison with Clavulansäure; from earlier filing EP 89117433.6; cited from earlier work"}, "Pseudomonas aeruginosa": {"system": "Pseudomonas aeruginosa", "details": "comparison with Clavulansäure; from earlier filing EP 89117433.6; cited from earlier work"}, "[2]": {"target": "T1, Cephalosporinasen aus Enterobacter cloacae (Enterobacter cloacae, UniProt P05364)", "T1 construct": "dagegen ist auch gegen diese Keime als Betalactamasehemmer wirksam; endogenous in cells", "T1 sequence (P05364 21-381)": "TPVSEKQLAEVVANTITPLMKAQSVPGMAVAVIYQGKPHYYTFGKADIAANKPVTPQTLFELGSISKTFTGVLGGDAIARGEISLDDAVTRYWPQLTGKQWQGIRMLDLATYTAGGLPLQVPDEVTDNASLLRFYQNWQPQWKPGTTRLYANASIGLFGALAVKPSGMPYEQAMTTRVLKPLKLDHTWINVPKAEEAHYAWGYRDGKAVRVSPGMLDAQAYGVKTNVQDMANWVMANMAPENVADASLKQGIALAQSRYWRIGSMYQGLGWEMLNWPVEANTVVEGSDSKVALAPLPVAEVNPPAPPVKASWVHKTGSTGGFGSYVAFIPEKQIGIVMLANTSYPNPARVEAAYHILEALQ", "details": "reported in Amer. J. Med. 79 (suppl. 5B), 194 (1985); cited from earlier work"}, "[3]": {"target": "T2, Cephalosporinasen aus Pseudomonas aeruginosa (Pseudomonas aeruginosa, UniProt P24735)", "T2 construct": "dagegen ist auch gegen diese Keime als Betalactamasehemmer wirksam; endogenous in cells", "T2 sequence (P24735 27-397)": "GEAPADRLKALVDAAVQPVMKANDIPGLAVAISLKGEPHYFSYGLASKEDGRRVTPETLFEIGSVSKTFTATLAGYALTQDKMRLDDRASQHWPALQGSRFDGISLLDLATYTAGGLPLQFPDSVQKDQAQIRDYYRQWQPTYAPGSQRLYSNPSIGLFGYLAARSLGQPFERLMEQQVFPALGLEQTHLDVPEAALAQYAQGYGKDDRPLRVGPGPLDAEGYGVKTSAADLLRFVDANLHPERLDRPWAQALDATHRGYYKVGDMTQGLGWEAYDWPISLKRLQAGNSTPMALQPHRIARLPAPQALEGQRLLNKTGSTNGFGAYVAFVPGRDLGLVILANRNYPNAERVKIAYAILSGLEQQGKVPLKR", "details": "reported in Amer. J. Med. 79 (suppl. 5B), 194 (1985); cited from earlier work"}, "E. cloacae": {"system": "E. cloacae", "test": "inhibition zone diameter, third-generation cephalosporin combined with inhibitor", "format": "cell-based", "text": "Die erfindungsgemässen Verbindungen sind in der Lage, schon in geringen Konzentrationen die Hemmwirkung aller untersuchter Penicilline wie z. B. Amoxycillin, Piperacillin, Mezlocillin oder Cephalosporine wie z. B. Cefaclor, Cefoperazon gegen Betalactamase-bildende Bakterien zu verstärken. Auch gemeinhin als Betalactamase-stabile geltende Cephalosporine der dritten Generation wie z. B. Cefotaxim oder Ceftriaxon (je 3O mcg) ergaben in der Kombination mit Ie (1O mcg) erstmals deutliche Hemmhöfe vom Durchmesser 27 bzw. 26 mm gegen E. cloacae. Die erfindungsgemässen Verbindungen sind stark wirksam gegen Penicillinasen und Cephalosporinasen."}, "[4]": {"target": "T1, Cephalosporinasen aus Enterobacter cloacae", "test": "beta-lactamase inhibitor activity against cephalosporinase producer", "details": "requires partner antibiotic able to enter the bacterium"}, "[5]": {"target": "T2, Cephalosporinasen aus Pseudomonas aeruginosa", "test": "beta-lactamase inhibitor activity against cephalosporinase producer", "details": "requires partner antibiotic able to enter the bacterium"}},
  "data": [
    {"compound": "CC(C)(C)C1=C(C(=O)O)N2C(=O)[C@H](CO)[C@H]2O1", "note": "(racemic) [Ia, 2-tert-Butyl-6-hydroxymethyloxapenem-3-carbonsäure (K-Salz)]", "values": [
      {"measurement": "zone of inhibition at 10 µg/disc", "setting": "E. coli TEM 1", "value": 17, "unit": "mm"},
      {"measurement": "Hemmhofzuwachs, d.h. die Schutzwirkung", "setting": "E. coli TEM 1", "value": "vergleichsweise gering"},
      {"measurement": "Eigenwirkung als Antibiotika", "setting": "E. coli TEM 1", "value": "gute Eigenwirkung"},
      {"measurement": "Wirksamkeit in der Kombination mit Mezlocillin", "setting": "[1]", "value": "wirksamer als Clavulansäure"},
      {"measurement": "Wirksamkeit in der Kombination mit Mezlocillin", "setting": "Pseudomonas aeruginosa", "value": "wirksamer als Clavulansäure"}
    ]},
    {"compound": "C[C@H](O)[C@H]1C(=O)N2C(C(=O)O)=C(C(C)(C)C)O[C@@H]12", "note": "(racemic) [Ic, racemischer cis-2-tert-Butyl-6-(unlike-hydroxyethyl)oxapenem-3-carbonsäure]", "values": [
      {"measurement": "zone of inhibition at 10 µg/disc", "setting": "E. coli TEM 1", "value": 9, "unit": "mm"}
    ]},
    {"compound": "C[C@@H](O)[C@H]1C(=O)N2C(C(=O)O)=C(C(C)(C)C)O[C@H]12", "note": "[Id]", "values": [
      {"measurement": "zone of inhibition at 10 µg/disc", "setting": "E. coli TEM 1", "value": 23, "unit": "mm"},
      {"measurement": "Hemmhofzuwachs, d.h. die Schutzwirkung", "setting": "E. coli TEM 1", "value": "vergleichsweise gering"},
      {"measurement": "Eigenwirkung als Antibiotika", "setting": "E. coli TEM 1", "value": "gute Eigenwirkung"}
    ]},
    {"compound": "O=C(O)[C@H]1/C(=C/CO)O[C@@H]2CC(=O)N21", "note": "[Clavulansäure]", "values": [
      {"measurement": "Hemmhof Durchmesser", "setting": "E. coli TEM 1; Cefaclor 3O mcg combined with 1O mcg Clavulansäure", "value": 22, "unit": "mm"},
      {"measurement": "Wirkung gegen Cephalosporinasen", "setting": "[2]", "value": "nicht"},
      {"measurement": "Wirkung gegen Cephalosporinasen", "setting": "[3]", "value": "nicht"}
    ]},
    {"compound": "N[C@@H](C(=O)N[C@@H]1C(=O)N2C(C(=O)O)=C(Cl)CS[C@H]12)c1ccccc1", "note": "[Cefaclor, reference compound]", "values": [
      {"measurement": "Hemmhof", "setting": "E. coli TEM 1; Cefaclor allein (3O mcg)", "value": 16, "unit": "mm"}
    ]},
    {"compound": "C[C@H](O)[C@H]1C(=O)N2C(C(=O)O)=C(C(C)(C)C)O[C@H]12", "note": "(racemic) [Ib, racemischer trans-2-tert-Butyl-6-(unlike-hydroxyethyl)oxapenem-3-carbonsäure]", "values": [
      {"measurement": "zone of inhibition at 10 µg/disc", "setting": "E. coli TEM 1", "value": 0, "unit": "mm"},
      {"measurement": "Wirkung als Betalactamasehemmer gegen E. coli TEM 1", "setting": "E. coli TEM 1", "value": "besonders gute Wirkung"}
    ]},
    {"compound": "C[C@H](O)[C@H]1C(=O)N2C(C(=O)O)=C(C(C)(C)C)O[C@H]12", "note": "[Ie, (5R,6R)-2-tert-Butyl-((1S)-hydroxyethyl)oxapenem-3-carbonsäure (K-Salz)]", "values": [
      {"measurement": "zone of inhibition at 10 µg/disc", "setting": "E. coli TEM 1", "value": 0, "unit": "mm"},
      {"measurement": "Wirkung als Betalactamasehemmer gegen E. coli TEM 1", "setting": "E. coli TEM 1", "value": "besonders gute Wirkung"},
      {"measurement": "Hemmhöfe vom Durchmesser", "setting": "E. cloacae; Cefotaxim 3O mcg combined with Ie 1O mcg", "value": 27, "unit": "mm"},
      {"measurement": "Hemmhöfe vom Durchmesser", "setting": "E. cloacae; Ceftriaxon 3O mcg combined with Ie 1O mcg", "value": 26, "unit": "mm"},
      {"measurement": "Wirkung als Betalactamasehemmer", "setting": "[4]", "value": "wirksam"},
      {"measurement": "Wirkung als Betalactamasehemmer", "setting": "[5]", "value": "wirksam"}
    ]}
  ]
}
